Inconclusive results and toxic doses are left out. No stated cut-off is given here; in the data, active means T/C of 150% or more; inactive means T/C below 125%.
Tested on: L1210 leukemia ip in BDF1 mice, survival T/C
Assay: NCI In Vivo Anticancer Drug Screen. Data for tumor model L1210 Leukemia (intraperitoneal) in B6D2F1 (BDF1) mice
Details: endpoint: mean survival time, higher = longer survival
Summary of the method: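 Transplanted-tumor mice were given test agent; controls received vehicle only. Survival readings from the two groups were divided (treated over control).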

[1] = dose: 100.0 mg/kg/injection, schedule: Q04DX003 (ip), vehicle: Klucel (hydroxypropylcellulose) (HPC)
[2] = dose: 200.0 mg/kg/injection, schedule: Q04DX003 (ip), vehicle: Klucel (hydroxypropylcellulose) (HPC)
[3] = dose: 400.0 mg/kg/injection, schedule: Q04DX003 (ip), vehicle: Klucel (hydroxypropylcellulose) (HPC)
[4] = dose: 100.0 mg/kg/injection, schedule: Q01DX009 (ip), vehicle: saline
[5] = dose: 100.0 mg/kg/injection, schedule: Q04DX003 (ip), vehicle: saline
[6] = dose: 200.0 mg/kg/injection, schedule: Q01DX009 (ip), vehicle: saline
[7] = dose: 200.0 mg/kg/injection, schedule: Q04DX003 (ip), vehicle: saline
[8] = dose: 400.0 mg/kg/injection, schedule: Q01DX009 (ip), vehicle: saline
[9] = dose: 400.0 mg/kg/injection, schedule: Q04DX003 (ip), vehicle: saline
[10] = dose: 100.0 mg/kg/injection, schedule: Q01DX001 (ip), vehicle: saline
[11] = dose: 200.0 mg/kg/injection, schedule: Q01DX001 (ip), vehicle: saline
[12] = dose: 400.0 mg/kg/injection, schedule: Q01DX001 (ip), vehicle: saline

Measured: T/C

O=[N+]([O-])c1ccc(SNc2ccc(NSc3ccc([N+](=O)[O-])cc3)cc2)cc1
inactive: dose: 25.0 mg/kg/injection, schedule: Q01DX001 (ip), vehicle: saline with Tween-80 96 % of control | dose: 50.0 mg/kg/injection, schedule: Q01DX001 (ip), vehicle: saline with Tween-80 100 % of control

COC(=O)C12C3OC(C4OC43)C1(C(=O)OC)C1OC2C2OC21 (stereo not drawn)
inactive: dose: 87.5 mg/kg/injection, schedule: Q01DX009 (ip), vehicle: Klucel (hydroxypropylcellulose) (HPC) 100 % of control | dose: 175.0 mg/kg/injection, schedule: Q01DX009 (ip), vehicle: Klucel (hydroxypropylcellulose) (HPC) 101 % of control | dose: 350.0 mg/kg/injection, schedule: Q01DX009 (ip), vehicle: Klucel (hydroxypropylcellulose) (HPC) 101 % of control

CCCCCc1c(C(F)(F)F)[nH]c(=O)[nH]c1=O
inactive: [1] 90 % of control | [2] 101 % of control | [3] 111 % of control

CCCCCCCCCCCCCCCCN(C)C(=S)c1ccc(OC)cc1
inactive: [1] 101 % of control | [2] 101 % of control | [3] 94 % of control

C#CCNC(=O)NCCCl
inactive: dose: 100.0 mg/kg/injection, schedule: Q01DX009 (ip), vehicle: saline with Tween-80 97 % of control | dose: 100.0 mg/kg/injection, schedule: Q04DX003 (ip), vehicle: saline with Tween-80 101 % of control | dose: 200.0 mg/kg/injection, schedule: Q01DX009 (ip), vehicle: saline with Tween-80 99 % of control | dose: 200.0 mg/kg/injection, schedule: Q04DX003 (ip), vehicle: saline with Tween-80 104 % of control | dose: 400.0 mg/kg/injection, schedule: Q01DX009 (ip), vehicle: saline with Tween-80 97 % of control | dose: 400.0 mg/kg/injection, schedule: Q04DX003 (ip), vehicle: saline with Tween-80 101 % of control

NC(CSSCC(NC(=O)CNC(=O)OCc1ccccc1)C(=O)O)C(=O)O (stereo not drawn)
inactive: dose: 100.0 mg/kg/injection, schedule: Q01DX001 (ip), vehicle: Klucel (hydroxypropylcellulose) (HPC) 93 % of control | dose: 200.0 mg/kg/injection, schedule: Q01DX001 (ip), vehicle: Klucel (hydroxypropylcellulose) (HPC) 90 % of control | dose: 400.0 mg/kg/injection, schedule: Q01DX001 (ip), vehicle: Klucel (hydroxypropylcellulose) (HPC) 98 % of control

COc1cc(C=Nc2ccccc2C(=O)N/N=C/c2cc(OC)c(OC)c(OC)c2)cc(OC)c1OC
inactive: [1] 97 % of control | [2] 100 % of control | [3] 91 % of control

CCOC(=O)C(N)C(C)(C)S (stereo not drawn)
inactive: [4] 94 % of control | [5] 96 % of control | [6] 103 % of control | [7] 102 % of control | [8] 100 % of control | [9] 103 % of control

CC1CNC(=O)CC(C)O1 (stereo not drawn)
inactive: [5] 108 % of control | [7] 110 % of control | [9] 104 % of control

O=C(NC/C(Br)=C/Br)c1ccccc1
inactive: [1] 96 % of control | [2] 100 % of control | [3] 96 % of control

C=CC(=O)NCNC(=O)C=C
inactive: dose: 50.0 mg/kg/injection, schedule: Q04DX003 (ip), vehicle: carboxymethylcellulose (CMC) 100 % of control | [10] 97 % of control | dose: 100.0 mg/kg/injection, schedule: Q04DX003 (ip), vehicle: carboxymethylcellulose (CMC) 110 % of control | [11] 101 % of control | [12] 113 % of control

CC(C)CC(N)C(=O)OCc1ccccc1 (stereo not drawn)
inactive: [4] 105 % of control | [5] 97 % of control | [6] 107 % of control | [7] 101 % of control | [8] 98 % of control | [9] 97 % of control

Cc1cc(C)c2c(=O)[nH]c(=S)[nH]c2n1
inactive: dose: 50.0 mg/kg/injection, schedule: Q01DX001 (ip), vehicle: saline 102 % of control | [10] 108 % of control | dose: 100.0 mg/kg/injection, schedule: Q01DX009 (ip), vehicle: Klucel (hydroxypropylcellulose) (HPC) 95 % of control | [11] 102 % of control | dose: 200.0 mg/kg/injection, schedule: Q01DX009 (ip), vehicle: Klucel (hydroxypropylcellulose) (HPC) 91 % of control | [12] 98 % of control | dose: 400.0 mg/kg/injection, schedule: Q01DX009 (ip), vehicle: Klucel (hydroxypropylcellulose) (HPC) 98 % of control

— PubChem BioAssay AID248 (DTP/NCI, 2004)
